Data from ChEMBL document CHEMBL4229405, “Design, synthesis and biological evaluation of piperazino-enaminones as novel suppressants of pro-Inflammatory cytokines” (Bioorg Med Chem, 2018).
Active and inactive are the calls of the source. The rule behind the calls is not given here.

Experiments:
J774.2 [1] = assay: Antiinflammatory activity against mouse J774.2 cells assessed as inhibition of LPS-induced TNFalpha release at 1 mM after 24 hrs by ELISA relative to control; assay type: functional; settings: J774.2, 24 h
J774.2 [2] = assay: Antiinflammatory activity against mouse J774.2 cells assessed as inhibition of LPS-induced IL-6 release at 1 mM after 24 hrs by ELISA relative to control; assay type: functional; settings: for inhibition at 1000 µM: J774.2, 24 h
[3] = Lipophilicity, log P of the compound; assay type: physicochemical; settings: octanol/water
J774.2 [4] = assay: Antiinflammatory activity against mouse J774.2 cells assessed as inhibition of LPS-induced IL-6 release at 0.25 mM after 24 hrs by ELISA relative to control; assay type: functional; settings: J774.2, 24 h
J774.2 [5] = assay: Antiinflammatory activity against mouse J774.2 cells assessed as inhibition of LPS-induced TNFalpha release at > 0.5 mM after 24 hrs by ELISA; assay type: functional, cell-based
J774.2 [6] = assay: Antiinflammatory activity against mouse J774.2 cells assessed as inhibition of LPS-induced TNFalpha release at 0.25 to 1 mM after 24 hrs by ELISA; assay type: functional, cell-based
J774.2 [7] = assay: Antiinflammatory activity against mouse J774.2 cells assessed as inhibition of LPS-induced TNFalpha release at 0.25 mM after 24 hrs by ELISA relative to control; assay type: functional; settings: J774.2, 24 h
J774.2 [8] = assay: Antiinflammatory activity against mouse J774.2 cells assessed as inhibition of LPS-induced TNFalpha release after 24 hrs by ELISA; assay type: functional, cell-based
J774.2 [9] = assay: Antiinflammatory activity against mouse J774.2 cells assessed as inhibition of LPS-induced IL-6 release at 0.5 mM after 24 hrs by ELISA relative to control; assay type: functional; settings: for inhibition at 500 µM: J774.2, 24 h

CCOC(=O)C1C(=O)C=C(Nc2ccccc2N2CCN(C)CC2)CC1C (stereo unspecified)
inhibition at 1000 µM (J774.2 [1]): 53%
inhibition at 1000 µM (J774.2 [2]): 72%
logP [3]: 3.02

CCOC(=O)C1C(=O)C=C(Nc2cccc(N3CCN(C)CC3)c2)CC1c1ccccc1 (stereo unspecified)
inhibition at 250 µM (J774.2 [4]): 35%
logP [3]: 4.37
inhibition (J774.2 [5]): Active

COC(=O)C1C(=O)C=C(Nc2ccccc2N2CCN(C)CC2)CC1C (stereo unspecified)
inhibition at 1000 µM (J774.2 [1]): 47%
inhibition at 1000 µM (J774.2 [2]): 68%
logP [3]: 2.65

CCOC(=O)C1C(=O)C=C(Nc2ccc(N3CCN(CC)CC3)cc2)CC1C (stereo unspecified)
inhibition at 250 µM (J774.2 [4]): 25%
logP [3]: 3.45
inhibition (J774.2 [5]): Active

COC(=O)C1C(=O)C=C(Nc2ccccc2N2CCN(C)CC2)CC1c1ccccc1 (stereo unspecified)
logP [3]: 3.97

COC(=O)C1C(=O)C=C(Nc2ccc(N3CCN(C)CC3)cc2)CC1C (stereo unspecified)
inhibition (J774.2 [6]): inactive
inhibition at 250 µM (J774.2 [4]): 53%
logP [3]: 2.7

CCOC(=O)C1C(=O)C=C(Nc2ccc(Cl)cc2)CC1C (stereo unspecified)
inhibition at 1000 µM (J774.2 [1]): 70%
inhibition at 1000 µM (J774.2 [2]): 96%
inhibition at 250 µM (J774.2 [4]): 20%

CCN1CCN(c2ccc(NC3=CC(=O)C(C(=O)OC)C(C)C3)cc2)CC1 (stereo unspecified)
logP [3]: 3.07

COC(=O)C1C(=O)C=C(Nc2cccc(N3CCN(C)CC3)c2)CC1c1ccccc1 (stereo unspecified)
inhibition at 250 µM (J774.2 [4]): 72%
inhibition at 250 µM (J774.2 [7]): 53%
logP [3]: 3.99
inhibition (J774.2 [8]): Dose-dependent effect

C[C@@H]1C[C@H]2[C@@H]3CCC4=CC(=O)C=C[C@]4(C)[C@@]3(F)[C@@H](O)C[C@]2(C)[C@@]1(O)C(=O)CO [DEXAMETHASONE]
inhibition at 1000 µM (J774.2 [1]): 62%
inhibition at 500 µM (J774.2 [9]): 40%

CCOC(=O)C1C(=O)C=C(Nc2ccc(N3CCN(CC)CC3)cc2)CC1c1ccccc1 (stereo unspecified)
inhibition (J774.2 [2]): inactive
inhibition at 250 µM (J774.2 [4]): 62%
inhibition at 250 µM (J774.2 [7]): 62%
logP [3]: 4.77
inhibition (J774.2 [9]): inactive

CCN1CCN(c2ccc(NC3=CC(=O)C(C(=O)OC)C(c4ccccc4)C3)cc2)CC1 (stereo unspecified)
inhibition at 250 µM (J774.2 [4]): 86%
inhibition at 250 µM (J774.2 [7]): 65%
logP [3]: 4.39
inhibition (J774.2 [8]): Dose-dependent effect

COC(=O)C1C(=O)C=C(Nc2cccc(N3CCN(C)CC3)c2)CC1C (stereo unspecified)
inhibition at 250 µM (J774.2 [7]): 40%
logP [3]: 2.67

CCOC(=O)C1C(=O)C=C(Nc2ccc(N3CCN(C)CC3)cc2)CC1c1ccccc1 (stereo unspecified)
inhibition at 1000 µM (J774.2 [1]): 100%
inhibition (J774.2 [2]): inactive
inhibition at 250 µM (J774.2 [4]): 64 to 98%
inhibition at 250 µM (J774.2 [7]): 52%
logP [3]: 4.39
inhibition at 500 µM (J774.2 [9]): 100%

CCOC(=O)C1C(=O)C=C(Nc2cccc(N3CCN(C)CC3)c2)CC1C (stereo unspecified)
logP [3]: 3.05

COC(=O)C1C(=O)C=C(Nc2ccc(N3CCN(C)CC3)cc2)CC1c1ccccc1 (stereo unspecified)
inhibition at 1000 µM (J774.2 [1]): 80 to 82%
inhibition at 250 µM (J774.2 [4]): 9 to 70%
inhibition at 250 µM (J774.2 [7]): 30%
logP [3]: 4.02
inhibition at 500 µM (J774.2 [9]): 98%

CCOC(=O)C1C(=O)C=C(Nc2ccc(N3CCN(C)CC3)cc2)CC1C (stereo unspecified)
logP [3]: 3.07

CCOC(=O)C1C(=O)C=C(Nc2ccccc2N2CCN(C)CC2)CC1c1ccccc1 (stereo unspecified)
logP [3]: 4.35
